Data published in US20030139442A1, “Vasoactive agents” (priority 2002, published 2003).

Biological target: T1, human GPR14 (Homo sapiens, UniProt Q9UKP6)
T1 construct: expressed in transfected cells
T1 sequence (Q9UKP6 1-389): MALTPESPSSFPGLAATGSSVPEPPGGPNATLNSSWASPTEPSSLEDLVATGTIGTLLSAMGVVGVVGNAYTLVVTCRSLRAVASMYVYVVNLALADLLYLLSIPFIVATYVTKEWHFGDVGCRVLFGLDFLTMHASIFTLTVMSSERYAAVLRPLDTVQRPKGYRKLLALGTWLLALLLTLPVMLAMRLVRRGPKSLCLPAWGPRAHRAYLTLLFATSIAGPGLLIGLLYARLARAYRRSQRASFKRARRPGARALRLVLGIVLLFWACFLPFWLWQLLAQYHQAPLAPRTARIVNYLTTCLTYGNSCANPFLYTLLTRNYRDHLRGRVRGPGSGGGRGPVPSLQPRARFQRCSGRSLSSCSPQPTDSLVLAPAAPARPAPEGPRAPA
Assay: Inhibition of binding of [125I]-labeled human urotensin II to GPR14 using human GPR14-expressing CHO cell fraction
Conditions: 1 nM [125I]-labeled human urotensin II; human GPR14-expressing CHO cell membrane fraction; 25° C., 3 hours; read-out: Inhibitory concentration (concentration showing 50% inhibition of human GPR14 binding activity)
Method: To 1×10^8 CHO/GPR14 cells were added 10 ml of homogenate buffer (10 mM NaHCO3, 5 mM EDTA, 0.5 mM PMSF, 1 μg/ml pepstatin, 4 μg/ml E64, 20μg/ml leupeptin), and disrupted using Polytron (12,000 rpm, 1 minute). Cell debris solution was centrifuged at 1,000 g for 15 minutes to obtain a supernatant. The supernatant was then […] (in Beckman type 30 rotor, 30,000 rpm, 1 hour), and the resultant precipitant was collected as human GPR14-expressing CHO cell fraction.
Isotope-labeled human urotensin II to be used in experiments for testing inhibition of binding was prepared as described below. 5 μg of human urotensin II (available from Peptide Institute, Inc.) was dissolved in 25 μl of 0.4M sodium acetate (pH 5.6). […]
Human GPR14-expressing CHO cell fraction was diluted in a membrane diluting buffer (20 mM phosphate buffer (pH7.3), 150 mM NaCl, 5 mM MgCl2, 0.1% BSA, 0.05% CHAPS, 0.5 mM PMSF, 0.1 μg/ml Pepstatin, 20 μg/ml Leupeptin, 4 μg/ml E-64) to prepare a solution of cell membrane fraction (protein concentration:3 μg/ml) for assay. […] Next, the filter was washed three times with membrane diluting buffer (0.2 ml), added with 20 μl of Microscinti 20 (Packard), and determined for radioactivity in Topcount (Packard). Specific-binding is calculated by subtracting non-specific binding from the total binding. […]

Nc1c2c(nc3ccc(-c4ccsc4)cc13)N(Cc1ccccc1)CC2 [compound 3]
IC50: 0.033 µM
